Test results as given in patent publication US20110319266A1, “HERBICIDAL COMPOSITION” (priority 2009, published 2011).
Values joined by “and” are separate entries in the source; they are usually repeats but may differ in a detail not shown here. Equal values may be shown once. Read-outs that look alike come from different tables or passages of the source.

What was measured:
Assay type in all cases: in vivo
Triticum aestivum = tested on: Triticum aestivum
Experimental: (§1) A plastic cup with a diameter of 8 cm and a depth of 6.5 cm was filled with soil. Seeds of wheat (Triticum aestivum) and one or more kinds of test plant selected from Alopecurus myosuroides, Lolium multiflorum, Setaria viridis, Sinapis arvensis and Stellaria media were sowed in the cup, and then grown in a greenhouse until Triticum aestivum was grown in the second to third leaf stage. Then, a test dilution containing predetermined amounts of the present compound, a compound selected from Group A and a compound selected from Group B was sprayed onto the whole plants uniformly. The test dilution was prepared by dissolving a predetermined amount of each compound in a 2% solution of Tween 20 (polyoxyethylene sorbitan fatty acid ester, MP Biomedicals, Inc.) in dimethylformamide and then diluting the solution with water, and then mixing the respective water dilutions thus obtained of the present compound, a compound selected from Group A and a compound selected from Group B. After the spray treatment, the plants were grown in a greenhouse for 21 days.

Lolium multiflorum = assay: Test Example 1: greenhouse spray test, herbicidal effect on Lolium multiflorum
Experimental: as §1

Sinapis arvensis = assay: Test Example 1: greenhouse spray test, herbicidal effect on Sinapis arvensis
Experimental: as §1, with “days. The herbicidal effect was rated in 101 levels from 0 (no effect) to 100 (complete death).” for “days.”

Setaria viridis = assay: Test Example 1: greenhouse spray test, herbicidal effect on Setaria viridis
Experimental: as §1, with “days. The herbicidal effect was rated in 101 levels from 0 (no effect) to 100 (complete death).” for “days.”

Alopecurus myosuroides = assay: Test Example 1: greenhouse spray test, herbicidal effect on Alopecurus myosuroides
Experimental: as §1, with “days. The herbicidal effect was rated in 101 levels from 0 (no effect) to 100 (complete death).” for “days.”

Stellaria media = assay: Test Example 1: greenhouse spray test, herbicidal effect on Stellaria media
Experimental: as §1

[1] = amount of chemical 5 g/ha, 21 days after spray, scale 0 (no effect) to 100 (complete death)
[2] = amount of chemical 25 g/ha, 21 days after spray, scale 0 (no effect) to 100 (complete death)
[3] = amount of chemical 6.3 g/ha, 21 days after spray, scale 0 (no effect) to 100 (complete death)
[4] = amount of chemical 0.1 g/ha, 21 days after spray, scale 0 (no effect) to 100 (complete death)
[5] = amount of chemical 0.2 g/ha, 21 days after spray, scale 0 (no effect) to 100 (complete death)
[6] = amount of chemical 3.1 g/ha, 21 days after spray, scale 0 (no effect) to 100 (complete death)
[7] = Lolium multiflorum, 504 h, read-out: herbicidal effect on Lolium multiflorum
[8] = Lolium multiflorum, 504 h, amount of chemical 6.3 g/ha, 21 days after spray, scale 0 (no effect) to 100 (complete death), read-out: herbicidal effect on Lolium multiflorum
[9] = amount of chemical 20 g/ha, 21 days after spray, scale 0 (no effect) to 100 (complete death)
[10] = amount of chemical 200 g/ha, 21 days after spray, scale 0 (no effect) to 100 (complete death)
[11] = amount of chemical 0.25 g/ha, 21 days after spray, scale 0 (no effect) to 100 (complete death)

CCc1cc(CC)c(-c2c(O)c(C)nn(C)c2=O)c(CC)c1 [I-a-17]
herbicidal effect on Triticum aestivum (Triticum aestivum; [1]): 5 | herbicidal effect on Lolium multiflorum (Lolium multiflorum; [1]): 10 | herbicidal effect on Sinapis arvensis (Sinapis arvensis; [1]): 30

O=C(O)COc1ccc(Cl)cc1Cl [2,4-D]
herbicidal effect on Triticum aestivum (Triticum aestivum; amount of chemical 25 g/ha): 0 | herbicidal effect on Sinapis arvensis (Sinapis arvensis; amount of chemical 25 g/ha): 80 | herbicidal effect on Setaria viridis (Setaria viridis; amount of chemical 25 g/ha): 0

CCOC(=O)Oc1c(C)nn(C)c(=O)c1-c1c(C)cc(C)cc1CC [I-b-35]
herbicidal effect on Triticum aestivum (Triticum aestivum; amount of chemical 25 g/ha): 10 | herbicidal effect on Alopecurus myosuroides (Alopecurus myosuroides; amount of chemical 25 g/ha): 50

O=C(O)c1nc(Cl)ccc1Cl [Clopyralid]
herbicidal effect on Triticum aestivum (Triticum aestivum; amount of chemical 100 g/ha): 0 | herbicidal effect on Alopecurus myosuroides (Alopecurus myosuroides; amount of chemical 100 g/ha): 0

CCOC(=O)Oc1c(C)nn(C)c(=O)c1-c1c(CC)cc(C)cc1CC [I-b-18]
herbicidal effect on Triticum aestivum (Triticum aestivum; amount of chemical 25 g/ha): 10 | herbicidal effect on Triticum aestivum (Triticum aestivum; [2]): 10 | herbicidal effect on Lolium multiflorum (Lolium multiflorum; amount of chemical 25 g/ha): 30 | herbicidal effect on Lolium multiflorum (Lolium multiflorum; [2]): 30 | herbicidal effect on Stellaria media (Stellaria media; amount of chemical 25 g/ha): 5

CCc1cc(C)cc(C)c1-c1c(O)c(C)nn(C)c1=O [I-a-18]
herbicidal effect on Triticum aestivum (Triticum aestivum; [3]): 5 | herbicidal effect on Lolium multiflorum (Lolium multiflorum; [3]): 60 | herbicidal effect on Stellaria media (Stellaria media; [3]): 5

COc1ncc(F)c2nc(S(=O)(=O)Nc3c(F)cccc3F)nn12 [Florasulam, florasulam]
herbicidal effect on Triticum aestivum (Triticum aestivum; amount of chemical 0.1 g/ha): 0 | herbicidal effect on Triticum aestivum (Triticum aestivum; [4]): 0 | herbicidal effect on Triticum aestivum (Triticum aestivum; [5]): 0 | herbicidal effect on Lolium multiflorum (Lolium multiflorum; amount of chemical 0.1 g/ha): 0 | herbicidal effect on Lolium multiflorum (Lolium multiflorum; [4]): 0 | herbicidal effect on Lolium multiflorum (Lolium multiflorum; [5]): 0

Nc1c(Cl)c(F)nc(OCC(=O)O)c1Cl [Fluroxypyr]
herbicidal effect on Triticum aestivum (Triticum aestivum; [2]): 0 | herbicidal effect on Alopecurus myosuroides (Alopecurus myosuroides; [2]): 0 | herbicidal effect on Stellaria media (Stellaria media; [2]): 40

CCc1cc(CC)c(-c2c(OC(=O)OC)c(C)nn(C)c2=O)c(CC)c1 [I-b-36]
herbicidal effect on Triticum aestivum (Triticum aestivum; amount of chemical 25 g/ha): 10 | herbicidal effect on Alopecurus myosuroides (Alopecurus myosuroides; amount of chemical 25 g/ha): 50

COC(=O)c1ccccc1S(=O)(=O)NC(=O)Nc1nc(C)nc(OC)n1 [Metsulfuron-methyl, metsulfuron-methyl]
herbicidal effect on Triticum aestivum (Triticum aestivum; [4]): 0 | pest or weed control at 0.1 g/ha (Lolium multiflorum; Lolium multiflorum, 504 h, amount of chemical 0.1 g/ha, 21 days after spray, scale 0 (no effect) to 100 (complete death)): 0% | herbicidal effect on Sinapis arvensis (Sinapis arvensis; [4]): 70

CCOC(=O)C1=NN(c2ccc(Cl)cc2Cl)C(C)(C(=O)OCC)C1 (stereo not drawn) [Mefenpyr-diethyl, mefenpyr-diethyl]
herbicidal effect on Triticum aestivum (Triticum aestivum; [6]): 0 | herbicidal effect on Triticum aestivum (Triticum aestivum; amount of chemical 6.3 g/ha): 0 | herbicidal effect on Triticum aestivum (Triticum aestivum; [3]): 0 | pest or weed control at 3.1 g/ha (Lolium multiflorum; [7]): 0% | pest or weed control at 6.3 g/ha (Lolium multiflorum; [7]): 0% | herbicidal effect on Lolium multiflorum (Lolium multiflorum; amount of chemical 6.3 g/ha): 0 | herbicidal effect on Stellaria media (Stellaria media; [6]): 0 | herbicidal effect on Stellaria media (Stellaria media; amount of chemical 6.3 g/ha): 0 | herbicidal effect on Stellaria media (Stellaria media; [3]): 0

CCCCCC(C)OC(=O)COc1ccc(Cl)c2cccnc12 (stereo not drawn) [Cloquintocet-mexyl, cloquintocet-mexyl]
pest or weed control at 6.3 g/ha (Lolium multiflorum; [8]): 0% | herbicidal effect on Sinapis arvensis (Sinapis arvensis; [3]): 0 | herbicidal effect on Alopecurus myosuroides (Alopecurus myosuroides; amount of chemical 6.3 g/ha): 0 | herbicidal effect on Alopecurus myosuroides (Alopecurus myosuroides; [3]): 0 | herbicidal effect on Stellaria media (Stellaria media; [3]): 0

COc1c(Cl)ccc(Cl)c1C(=O)O [Dicamba]
pest or weed control at 50 g/ha (Lolium multiflorum; Lolium multiflorum, 504 h, amount of chemical 50 g/ha): 0%

CCc1cc(C)cc(CC)c1-c1c(OC(=O)OC)c(C)nn(C)c1=O [I-b-25]
herbicidal effect on Triticum aestivum (Triticum aestivum; amount of chemical 25 g/ha): 5 | herbicidal effect on Sinapis arvensis (Sinapis arvensis; amount of chemical 25 g/ha): 20 | herbicidal effect on Setaria viridis (Setaria viridis; amount of chemical 25 g/ha): 95

CCc1cc(C)cc(CC)c1-c1c(O)c(C)nn(C)c1=O [I-a-14, 4-(2,6-diethyl-4-methylphenyl)-5-hydroxy-2,6-dimethyl-3(2H)-pyridazinone]
pest or weed control at 25 g/ha (Lolium multiflorum; Lolium multiflorum, 504 h, amount of chemical 25 g/ha, 21 days after spray, scale 0 (no effect) to 100 (complete death)): 90% | herbicidal effect on Sinapis arvensis (Sinapis arvensis; [2]): 60 | herbicidal effect on Alopecurus myosuroides (Alopecurus myosuroides; [2]): 90 | herbicidal effect on Stellaria media (Stellaria media; [2]): 50

COC(=O)c1sccc1S(=O)(=O)NC(=O)Nc1nc(C)nc(OC)n1 [Thifensulfuron-methyl, thifensulfuron-methyl]
herbicidal effect on Stellaria media (Stellaria media; amount of chemical 1 g/ha): 50

CCc1cc(C)cc(CC)c1-c1c(OC(C)=O)c(C)nn(C)c1=O [I-b-14]
herbicidal effect on Triticum aestivum (Triticum aestivum; [3]): 5 | herbicidal effect on Lolium multiflorum (Lolium multiflorum; [3]): 70

Cc1nn(C)c(O)c1C(=O)c1ccc(C(F)(F)F)cc1S(C)(=O)=O [Pyrasulfotole, pyrasulfotole]
herbicidal effect on Triticum aestivum (Triticum aestivum; [9]): 15 | herbicidal effect on Lolium multiflorum (Lolium multiflorum; [9]): 0 | herbicidal effect on Sinapis arvensis (Sinapis arvensis; [9]): 70

CCOC(=O)c1nc(C(Cl)(Cl)Cl)n(-c2ccc(Cl)cc2Cl)n1 [Fenchlorazole-ethyl, fenchlorazole-ethyl]
pest or weed control at 5 g/ha (Lolium multiflorum; Lolium multiflorum, 504 h, amount of chemical 5 g/ha, 21 days after spray, scale 0 (no effect) to 100 (complete death)): 0% | pest or weed control at 6.3 g/ha (Lolium multiflorum; [8]): 0% | herbicidal effect on Sinapis arvensis (Sinapis arvensis; [1]): 0 | herbicidal effect on Sinapis arvensis (Sinapis arvensis; amount of chemical 6.3 g/ha): 0 | herbicidal effect on Setaria viridis (Setaria viridis; amount of chemical 6.3 g/ha): 0

N#Cc1cc(Br)c(O)c(Br)c1 [Bromoxynil, bromoxynil]
herbicidal effect on Triticum aestivum (Triticum aestivum; [9]): 0 | herbicidal effect on Triticum aestivum (Triticum aestivum; [10]): 5 | pest or weed control at 20 g/ha (Lolium multiflorum; [7]): 0% | pest or weed control at 200 g/ha (Lolium multiflorum; [7]): 0% | herbicidal effect on Stellaria media (Stellaria media; [9]): 0 | herbicidal effect on Stellaria media (Stellaria media; [10]): 10

COc1nc(C)nc(NC(=O)NS(=O)(=O)c2ccccc2Cl)n1 [Chlorsulfuron]
herbicidal effect on Alopecurus myosuroides (Alopecurus myosuroides; amount of chemical 1 g/ha): 0

COC(=O)c1ccccc1S(=O)(=O)NC(=O)N(C)c1nc(C)nc(OC)n1 [Tribenuron-methyl, tribenuron-methyl]
herbicidal effect on Triticum aestivum (Triticum aestivum; [11]): 0 | pest or weed control at 0.25 g/ha (Lolium multiflorum; Lolium multiflorum, 504 h, amount of chemical 0.25 g/ha, 21 days after spray, scale 0 (no effect) to 100 (complete death)): 0% | herbicidal effect on Stellaria media (Stellaria media; [11]): 90 and 80
